From patent US20250222003A1, “PHARMACEUTICAL COMPOSITION FOR TREATING SOLID TUMORS” (Eisai R&D Management Co., Ltd., priority 2021, published 2025)
Like-named read-outs stand apart in the source and are kept apart here. Marks after values point to notes of the source that are not given here.

What was measured:
[1] = Pharmacokinetics of Compound A, phase I dose-escalation part (plasma); type: in vivo, human; conditions: for AUC(0-t) / Cmax / Tmax / AUC / half-life: human, plasma, oral; for AUC(0-t): read-out: AUC(0-12 h); for half-life: read-out: Effective t1/2 (converted)
Experimental: In the treatment phase, Compound A (an oral formulation containing Compound A) is administered to the subjects of administration in one cycle of 28 days. The subjects continued to receive Compound A until disease progression, development of intolerable side effects, the desire for discontinuation of administration and consent withdrawal by the subjects of administration, or trial discontinuation by the clinical trial client. One cycle is 28 days of administration, and such an abbreviation as “C1D28” indicates the number of cycles and the number of days in the cycle, for example, “C1D28” means the 28th day of cycle 1 (the first cycle). The subjects of administration were hospitalized until the time of […] and took a medical consultation and physical examination at the time of C1D15, and if the principal investigator or sub investigator was judged, from the results, that there were no medical problems, the subjects were allowed to leave the hospital. If administration was to be continued after the completion of the medical consultation and physical examination at the time of C2D1, written consent for continuation was obtained before administration at the time of C2D1.
Tablets containing Compound A are used as Compound A and administered orally repeatedly twice daily (BID). The subjects fasted 2 hours before and 1 hour after administration. The tablets were taken with water and, if possible, at the prescribed time, but if this was not possible, the tablets were taken 8 hours or more after the previous administration.
In the dose-escalation part, blood was collected from the subjects of administration according to the schedule shown in Table 5, and the pharmacokinetics of Compound A was evaluated. In the expansion part, blood was collected from the subjects of administration before the first administration at C1D1 and CID8, 0.5, 1 and 2 hours after the oral administration of Compound A, and before the first administration at C2D1, and the pharmacokinetics of Compound A was evaluated. The data for C1D1 (the first day of the first cycle) corresponds to the results of a single-dose administration, and the data for C1D8 (the eighth day of the first cycle) corresponds to the results after multiple-dose administration for 8 days at 2 doses per 1 day.
a Based on 5 patients; b based on 2 patients; c based on 3 patients. tmax is reported as median (range). All other values are reported as geometric mean (% CV). Parameters with two patients are reported for both patients.

[2] = tested on: patients with a solid tumor; experiment: Suppression of nausea or vomiting associated with administration of Compound A by antiemetics; type: in vivo, human
Text: For subjects of administration that had the gastrointestinal symptoms, nausea or vomiting, the results of administration of various antiemetics were investigated to determine whether they could suppress the occurrence of nausea or vomiting. The antiemetics used were domperidone ([…], Nauzelin tablet), metoclopramide (peripheral D2 receptor antagonist, metoclopramide tablet), ramosetron hydrochloride (5-HT3 receptor antagonist, Nasea tablet), granisetron (5-HT3 receptor antagonist (Kytril tablet), and the like.
The antiemetics were timely administered to 20 subjects of administration that complained of vomiting during Cycle 1.
FIGS. 1 and 2 are graphs showing the relationship between Cmax(Cmax,ss) or AUC (AUC(0-tau),ss) and the vomiting flag for each test subject at the time of CID8. For example, the vomiting flag 3 means a case in which treatment with an antiemetic other than the 5-HT3 receptor antagonist was first attempted but vomiting could not be suppressed, and vomiting could be suppressed when the antiemetic was switched to the 5-HT3 receptor antagonist.
Five additional patients were investigated whether the occurrence of nausea or vomiting, which is an adverse event having a causal relationship with Compound A, could be suppressed. Ramosetron hydrochloride or granisetron hydrochloride (5-HT3 receptor antagonist) was administered to four patients of administration that complained of vomiting during Cycle 1. Of the four patients that complained of vomiting, three patients received granisetron hydrochloride to prevent the gastrointestinal symptoms (nausea, vomiting) associated with administration of Compound A.

[3] = C1D8, 160 mg BID (n = 2), both patients
[4] = 160 mg, C1D8, 160 mg BID (n = 2), both patients

Effective t1/2 ([1]; C1D8, 20 mg BID, based on 2 patients, both patients): 18.0 ^b h
C max, ss [1, 3]: 3850 ng/mL
Effective t1/2 [1, 3]: 25.6 h
t max, ss [1, 3]: 1.00, 1.00 h
AUC(0-t) ([1]; 10 mg, C1D1, 10 mg BID (n = 3), geometric mean): 131 ng·h/mL
Cmax ([1]; 10 mg, C1D1, 10 mg BID (n = 3), geometric mean, read-out: Cmax): 37.2 ng/mL
Tmax ([1]; 10 mg, C1D1, 10 mg BID (n = 3), median): 2 h
AUC ([1]; 10 mg, C1D8, 10 mg BID (n = 3), geometric mean, read-out: AUC (0-tau), ss): 210 ng·h/mL
Cmax ([1]; 10 mg, C1D8, 10 mg BID (n = 3), geometric mean, read-out: C max, ss): 53.9 ng/mL
Tmax ([1]; 10 mg, C1D8, 10 mg BID (n = 3), median): 2 h
AUC(0-t) ([1]; 15 mg, C1D1, 15 mg BID (n = 4), geometric mean): 310 ng·h/mL
Cmax ([1]; 15 mg, C1D1, 15 mg BID (n = 4), geometric mean, read-out: Cmax): 135 ng/mL
Tmax ([1]; 15 mg, C1D1, 15 mg BID (n = 4), median): 0.75 h
AUC ([1]; 15 mg, C1D8, 15 mg BID (n = 4), geometric mean, read-out: AUC (0-tau), ss): 504 ng·h/mL
Cmax ([1]; 15 mg, C1D8, 15 mg BID (n = 4), geometric mean, read-out: C max, ss): 159 ng/mL
half-life ([1]; 15 mg, C1D8, 15 mg BID (n = 4), geometric mean): 7.1 h
Tmax ([1]; 15 mg, C1D8, 15 mg BID (n = 4), median): 0.75 h
AUC(0-t) ([1]; 20 mg, C1D1, 20 mg BID (n = 3), geometric mean): 501 ng·h/mL
Cmax ([1]; 20 mg, C1D1, 20 mg BID (n = 3), geometric mean, read-out: Cmax): 146 ng/mL
Tmax ([1]; 20 mg, C1D1, 20 mg BID (n = 3), median): 1 h
AUC ([1]; 20 mg, C1D8, 20 mg BID (n = 3), geometric mean, read-out: AUC (0-tau), ss): 866 ng·h/mL
Cmax ([1]; 20 mg, C1D8, 20 mg BID (n = 3), geometric mean, read-out: C max, ss): 278 ng/mL
Tmax ([1]; 20 mg, C1D8, 20 mg BID (n = 3), median): 0.5 h
half-life ([1]; 20 mg, C1D8, 20 mg BID, based on 2 patients, both patients): 12.2 h
AUC(0-t) ([1]; 30 mg, C1D1, 30 mg BID (n = 3), geometric mean): 349 ng·h/mL
Cmax ([1]; 30 mg, C1D1, 30 mg BID (n = 3), geometric mean, read-out: Cmax): 105 ng/mL
Tmax ([1]; 30 mg, C1D1, 30 mg BID (n = 3), median): 2 h
AUC ([1]; 30 mg, C1D8, 30 mg BID (n = 3), geometric mean, read-out: AUC (0-tau), ss): 396 ng·h/mL
Cmax ([1]; 30 mg, C1D8, 30 mg BID (n = 3), geometric mean, read-out: C max, ss): 68.3 ng/mL
Tmax ([1]; 30 mg, C1D8, 30 mg BID (n = 3), median): 2 h
AUC(0-t) ([1]; 45 mg, C1D1, 45 mg BID (n = 4), geometric mean): 865 ng·h/mL
Cmax ([1]; 45 mg, C1D1, 45 mg BID (n = 4), geometric mean, read-out: Cmax): 209 ng/mL
Tmax ([1]; 45 mg, C1D1, 45 mg BID (n = 4), median): 1 h
AUC ([1]; 45 mg, C1D8, 45 mg BID (n = 4), geometric mean, read-out: AUC (0-tau), ss): 1070 ng·h/mL
Cmax ([1]; 45 mg, C1D8, 45 mg BID (n = 4), geometric mean, read-out: C max, ss): 199 ng/mL
half-life ([1]; 45 mg, C1D8, 45 mg BID (n = 4), geometric mean): 6.59 h
Tmax ([1]; 45 mg, C1D8, 45 mg BID (n = 4), median): 3 h
AUC(0-t) ([1]; 80 mg, C1D1, 80 mg BID (n = 3), geometric mean): 758 ng·h/mL
Cmax ([1]; 80 mg, C1D1, 80 mg BID (n = 3), geometric mean, read-out: Cmax): 279 ng/mL
Tmax ([1]; 80 mg, C1D1, 80 mg BID (n = 3), median): 2 h
AUC ([1]; 80 mg, C1D8, 80 mg BID (n = 3), geometric mean, read-out: AUC (0-tau), ss): 2100 ng·h/mL
Cmax ([1]; 80 mg, C1D8, 80 mg BID (n = 3), geometric mean, read-out: C max, ss): 737 ng/mL
half-life ([1]; 80 mg, C1D8, 80 mg BID (n = 3), geometric mean): 17.4 h
Tmax ([1]; 80 mg, C1D8, 80 mg BID (n = 3), median): 1 h
AUC(0-t) ([1]; 100 mg, C1D1, 100 mg BID (n = 6), geometric mean): 1420 ng·h/mL
Cmax ([1]; 100 mg, C1D1, 100 mg BID (n = 6), geometric mean, read-out: Cmax): 443 ng/mL
Tmax ([1]; 100 mg, C1D1, 100 mg BID (n = 6), median): 0.5 h
Cmax ([1]; 100 mg, C1D8, 100 mg BID (n = 6), geometric mean, read-out: C max, ss): 862 ng/mL
half-life ([1]; 100 mg, C1D8, 100 mg BID (n = 6), geometric mean): 13 h
Tmax ([1]; 100 mg, C1D8, 100 mg BID (n = 6), median): 1 h
AUC ([1]; 100 mg, C1D8, 100 mg BID, based on 5 patients, geometric mean, read-out: AUC (0-tau), ss): 2700 ng·h/mL
AUC(0-t) ([1]; 120 mg, C1D1, 120 mg BID (n = 3), geometric mean): 1910 ng·h/mL
Cmax ([1]; 120 mg, C1D1, 120 mg BID (n = 3), geometric mean, read-out: Cmax): 557 ng/mL
Tmax ([1]; 120 mg, C1D1, 120 mg BID (n = 3), median): 2 h
AUC(0-t) ([1]; 120 mg, C1D1, 120 mg BID (n = 8, incl. additional cases), geometric mean): 1910 ng·h/mL
Cmax ([1]; 120 mg, C1D1, 120 mg BID (n = 8, incl. additional cases), geometric mean, read-out: Cmax): 557 ng/mL
Tmax ([1]; 120 mg, C1D1, 120 mg BID (n = 8, incl. additional cases), median): 2 h
AUC ([1]; 120 mg, C1D8, 120 mg BID (n = 3), geometric mean, read-out: AUC (0-tau), ss): 2460 ng·h/mL
Cmax ([1]; 120 mg, C1D8, 120 mg BID (n = 3), geometric mean, read-out: C max, ss): 737 ng/mL
half-life ([1]; 120 mg, C1D8, 120 mg BID (n = 3), geometric mean): 5.49 h
Tmax ([1]; 120 mg, C1D8, 120 mg BID (n = 3), median): 1 h
AUC ([1]; 120 mg, C1D8, 120 mg BID (n = 8), based on n = 7 subjects, geometric mean, read-out: AUC (0-tau), ss): 2460 ng·h/mL
Cmax ([1]; 120 mg, C1D8, 120 mg BID (n = 8), based on n = 7 subjects, geometric mean, read-out: C max, ss): 751 ng/mL
Tmax ([1]; 120 mg, C1D8, 120 mg BID (n = 8), based on n = 7 subjects, median): 1 h
AUC ([1]; 160 mg BID, C1D8, read-out: lowest value of AUC(0-tau),ss of the subjects in which vomiting could not be suppressed even after the 5-HT3 receptor antagonist): 9060 ng·h/mL
Tmax ([1]; 160 mg, C1D1, 160 mg BID (n = 2), both patients): 0.5 h
Tmax [1, 4]: 1 h
Cmax ([1]; 160 mg, C1D8, 160 mg BID (n = 2), both patients, read-out: C max, ss): 2980 ng/mL
half-life [1, 4]: 17.5 h
AUC ([1]; C1D8, read-out: highest value of AUC(0-tau),ss of the subjects in which vomiting could be suppressed by the 5-HT3 receptor antagonist): 7640 ng·h/mL
SMILES: C=CCN1CC(=O)N2[C@@H](Cc3ccc(O)cc3F)C(=O)N(Cc3cccc(N4CC(N5CCN(CC)CC5)C4)n3)C[C@@H]2N1C(=O)NCc1ccccc1 [Compound A, (6S,9aS)—N-benzyl-8-({6-[3-(4-ethylpiperazin-1-yl)azetidin-1-yl]pyridin-2-yl}methyl)-6-(2-fluoro-4-hydroxybenzyl)-4,7-dioxo-2-(prop-2-en-1-yl)hexahydro-2H-pyrazino[2,1-c][1,2,4]triazine-1 (6H)-carboxamide]
relation of exposure to dosage ([1]; 10-160 mg BID, Tables 6 and 7): exposure amount increased as the dosage of Compound A increased
Vomiting flag 0, N: neither nausea nor vomiting observed, or antiemetics not required ([2]; Table 10, before additional cases): 10
Vomiting flag 0, N: neither nausea nor vomiting observed, or antiemetics not required ([2]; Table 14, entire dose-escalation part incl. additional cases): 11
